Source: US11179471B2, “Peptide for cytosolic delivery” (priority 2017, dated 2021)
Residues, ends and D or L forms follow the SMILES beside them.

Legend:
NIH3T3 cells = assay: Intracellular release of dextran (10 kDa) in NIH3T3 cells; assay type: cell-based
Experimental: Intracellular release of dextran is more difficult in NIH3T3 cells than in HeLa cells. NIH3T3 cells and dextran (10 kDa) were incubated in the presence of HAad, HA/E2, or L17E (40 μM each) in DEME(−) medium for 1 hour in the same manner as in Example 6.

HeLa cells = assay: Intracellular release of Alexa 488-labeled human immunoglobulin (IgG, circa 160 kDa); assay type: cell-based; conditions: for cells in which intracellular release of human immunoglobulin was observed: α-MEM(−) 1 hour
Experimental: The cells and human immunoglobulin fluorescently labeled with Alexa 488 (IgG, circa 160 kDa) (500 μg/mL) were incubated in the presence of HAad, HA/E2, or L17E (40 μM each) in α-MEM(−) medium for 1 hour in the same manner as in Example 6.
The cells and human immunoglobulin fluorescently labeled with Alexa 488 (IgG, circa 160 kDa) (50 μg/mL: 1/10 the volume of Example 8) were incubated in the presence of HAad or L17E (40 μM each) in α-MEM(−) medium for 1 hour.
In the presence of HAad or L17E (20 μM each: ½ the amount used in Examples 8 and 9), the cells and human immunoglobulin fluorescently labeled with Alexa 488 (IgG, circa 160 kDa) (500 μg/mL: the same amount as in Example 8) were incubated in α-MEM(−) medium for 1 hour. […] (In FIG. 9, the intracellular release achieved by treatment with a low concentration of HAad was 2.5 times the release achieved by L17E. With respect to the peptide concentration required to detect the signal of intracellularly released human immunoglobulin in 35% of the cells, the concentration of L17E is 40 μM, and the concentration of HAad is 20 μM, which is half the concentration of L17E.)

[1] = tested on: HeLa cells transfected with a plasmid encoding loxP-DsRed-loxP-EGFP; assay: Genetic recombination assay by intracellular delivery of Cre protein (EGFP expression); assay type: cell-based
Experimental: HeLa cells transfected with a plasmid encoding loxP-DsRed-loxP-EGFP, which were prepared in the same manner as in the Examples of PTL 2, were incubated with His-tag fusion Cre (Cre-Hiss) (10 μM) in the presence of HAad, HA/E2, or L17E (40 μM each) for 1 hour. This system was designed to express EGFP when intracellular release of Cre protein induces genetic recombination. […] The proportions of GFP-expressing cells in the cells treated with HAad, HA/E2, and L17E were 41%, 36%, and 30%, respectively. Considering the fact that the EGFP expression efficiency achieved with no administration of a release peptide was 9%, peptide administration of HAad, HA/E2, and L17E can be considered to increase genetic recombination by 32%, 27%, and […], respectively, as compared with no peptide administration.

RAW 264.7 cells = assay: Cell-killing assay by intracellular delivery of toxin protein saporin (WST-8); assay type: cell-based; conditions: saporin 10 μg/mL, 40 μM
Experimental: Saporin is known as a cytotoxin that kills cancer cells by its intracellular delivery. RAW 264.7 cells and saporin (10 μg/mL) were incubated in the presence of HAad, HA/E2, or L17E (40 μM each) in α-MEM(−) medium for 1 hour. After the cells were then washed and the medium was replaced with DMEM(+), the cells were further incubated for 6 hours. The cell viability (%) was assayed by WST-8 assay (FIG. 10).

[2] = Helix content from CD spectra in the presence of POPC/POPG (3:1) liposomes; assay type: physicochemical; conditions: result in words (FIG. 1)
Experimental: The helix content was calculated by the method of Y. H. Chen et al., 1972, based on 222-nm molar ellipticity ([…]) using the following formula: Helicity (%)=−([θ]222+2340)/30300*100.
The helix content of the peptides obtained in Example 1 (L17E, L17E/Q21E, L17Aad, HA/E1, HA/E2, and HAad) was calculated in the presence of POPC/POPG (3:1) liposomes by the method of Y. H. Chen et al., 1972, based on 222-nm molar ellipticity ([θ]222) using the following formula: Helix content (%)=−([θ]222+2340)/30300*100. Further, the CD spectra of the peptides were measured.

SMILES: CC[C@H](C)[C@H](N)C(=O)N[C@@H](Cc1c[nH]c2ccccc12)C(=O)N[C@@H](CC(C)C)C(=O)N[C@H](C(=O)N[C@@H](C)C(=O)N[C@@H](CC(C)C)C(=O)N[C@@H](CCCCN)C(=O)N[C@@H](Cc1ccccc1)C(=O)N[C@@H](CC(C)C)C(=O)NCC(=O)N[C@@H](CCCCN)C(=O)N[C@@H](C)C(=O)N[C@@H](C)C(=O)N[C@@H](C)C(=O)N[C@@H](CCCCN)C(=O)N[C@@H](C)C(=O)N[C@@H](CCCC(=O)O)C(=O)N[C@@H](C)C(=O)N[C@@H](CCCCN)C(=O)N[C@@H](CCC(N)=O)C(=O)N[C@@H](CCCC(=O)O)C(=O)N[C@@H](CC(C)C)C(=O)N[C@@H](CO)C(=O)N[C@@H](CCCCN)C(=O)N[C@@H](CC(C)C)C(N)=O)[C@@H](C)O [HAad, H-IWLTALKFLGKAAAKAXAKQXLSKL-amide] (HELM PEPTIDE1{I.W.L.T.A.L.K.F.L.G.K.A.A.A.K.A.[O=C(O)CCC[C@H](N[*:1])C(=O)[*:2]].A.K.Q.[O=C(O)CCC[C@H](N[*:1])C(=O)[*:2]].L.S.K.L.[am]}$$$$V2.0)
- intracellular release of dextran relative to L17E (NIH3T3 cells; 40 μM): twice
- cells in which intracellular release of dextran was observed (NIH3T3 cells; peptide 40 μM, dextran (10 kDa), DEME(−) medium 1 hour): about 35%
- peptide concentration required to detect the signal of intracellularly released human immunoglobulin in 35% of the cells (HeLa cells; IgG 500 μg/mL, 1 hour): 20 µM
- intracellular release of IgG relative to L17E (HeLa cells; peptide 20 μM, IgG 500 μg/mL (FIG. 9)): 2.5 times
- cells in which intracellular release of human immunoglobulin was observed (HeLa cells; peptide 20 μM, IgG 500 μg/mL): about 37%
- IgG dose required for intracellular IgG release in 50% of the cells, relative (HeLa cells; peptide 40 μM, HAad treatment compared with L17E): 1/10
- intracellular release of IgG relative to L17E (HeLa cells; peptide 40 μM, IgG 50 μg/mL (FIG. 8)): 5 times
- cells in which intracellular release of human immunoglobulin was observed (HeLa cells; peptide 40 μM, IgG 50 μg/mL): 50%
- intracellular release of IgG relative to L17E (HeLa cells; peptide 40 μM, IgG 500 μg/mL (FIG. 7)): twice
- cells in which intracellular release of human immunoglobulin was observed (HeLa cells; peptide 40 μM, IgG 500 μg/mL): about 70%
- proportion of GFP-expressing cells ([1]; Cre-His6 10 μM, peptide 40 μM, 1 hour, then 24 hours in α-MEM(+)): 41%
- increase of genetic recombination as compared with no peptide administration ([1]; EGFP expression with no release peptide was 9%): 32%
- cell viability relative to that in the presence of L17E (RAW 264.7 cells): ¼
- helicity in the presence of an acidic lipid membrane [2]: high helicity
